Experimental data reported in EP2970215B1, “PYRROLIDINE DERIVATIVES, PHARMACEUTICAL COMPOSITIONS CONTAINING THEM, AND THEIR USE IN THERAPY” (AbbVie Deutschland GmbH & Co. KG, priority 2013, dated 2014).

Biological target: T1, human GlyT1c transporter (Homo sapiens, UniProt P48067)
T1 construct: expressed in transfected cells; host or cells: CHO cells (recombinant; line hGlyT1c_5_CHO is named for the uptake assay)
T1 sequence (P48067 1-706): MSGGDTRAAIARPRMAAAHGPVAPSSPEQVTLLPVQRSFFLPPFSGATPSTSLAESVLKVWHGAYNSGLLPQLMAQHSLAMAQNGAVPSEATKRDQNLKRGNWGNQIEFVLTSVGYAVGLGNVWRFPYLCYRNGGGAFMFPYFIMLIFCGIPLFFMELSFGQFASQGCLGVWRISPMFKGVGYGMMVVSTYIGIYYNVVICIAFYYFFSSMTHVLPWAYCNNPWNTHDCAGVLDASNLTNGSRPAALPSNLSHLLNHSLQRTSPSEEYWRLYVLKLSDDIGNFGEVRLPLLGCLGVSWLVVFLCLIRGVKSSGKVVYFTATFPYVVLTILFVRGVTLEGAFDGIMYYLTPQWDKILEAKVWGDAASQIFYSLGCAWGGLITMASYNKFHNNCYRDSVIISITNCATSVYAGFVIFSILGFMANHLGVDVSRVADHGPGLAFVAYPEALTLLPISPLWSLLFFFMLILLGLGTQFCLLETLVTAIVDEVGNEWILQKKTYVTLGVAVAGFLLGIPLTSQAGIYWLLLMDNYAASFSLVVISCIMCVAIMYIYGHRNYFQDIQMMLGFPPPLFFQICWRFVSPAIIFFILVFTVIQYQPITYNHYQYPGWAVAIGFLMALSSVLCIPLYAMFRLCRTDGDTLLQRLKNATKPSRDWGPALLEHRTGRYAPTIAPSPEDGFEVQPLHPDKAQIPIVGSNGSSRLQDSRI
Experiment: Radioligand binding assay using recombinant CHO cell membranes expressing human GlyT1
Details: radioligand binding to human GlyT1c transporter-expressing membranes
Description: 2. Radioligand binding assays using recombinant CHO cell membranes expressing human GlyT1: […]

| Compound | Ki [nM] |
| --- | --- |
| Cn1cnc(S(=O)(=O)N2C[C@@H](Nc3cccc(C(C)(C)C)c3)[C@H](c3ccc(F)cc3)C2)c1 (relative stereo) [Example 171, trans-N-(3-tert-butylphenyl)-4-(4-fluorophenyl)-1-[(1-methyl-1H-imidazol-4-yl)sulfonyl]pyrrolidin-3-amine] | ≤ 100 |
| Cn1cnc(S(=O)(=O)N2C[C@@H](Nc3ccc(Cl)c(C(F)(F)F)c3)[C@H](c3ccc(F)cc3)C2)c1 (relative stereo) [Example 172, trans-N-[4-chloro-3-(trifluoromethyl)phenyl]-4-(4-fluorophenyl)-1-[(1-methyl-1H-imidazol-4-yl)sulfonyl]pyrrolidin-3-amine] | ≤ 100 |
| Cn1cnc(S(=O)(=O)N2C[C@@H](Nc3ccc(C(F)(F)F)c(Cl)c3)[C@H](c3ccc(F)cc3)C2)c1 (relative stereo) [Example 173, trans-N-[3-chloro-4-(trifluoromethyl)phenyl]-4-(4-fluorophenyl)-1-[(1-methyl-1H-imidazol-4-yl)sulfonyl]pyrrolidin-3-amine] | ≤ 1000 |
| Cn1cnc(S(=O)(=O)N2C[C@@H](Nc3cc(F)cc(Cl)c3)[C@H](c3ccc(F)cc3)C2)c1 (relative stereo) [Example 174, trans-N-(3-chloro-5-fluorophenyl)-4-(4-fluorophenyl)-1-[(1-methyl-1H-imidazol-4-yl)sulfonyl]pyrrolidin-3-amine] | ≤ 1000 |
| Cn1cnc(S(=O)(=O)N2C[C@@H](Nc3cc(F)c(F)c(Cl)c3)[C@H](c3ccc(F)cc3)C2)c1 (relative stereo) [Example 175, trans-N-(3-chloro-4,5-difluorophenyl)-4-(4-fluorophenyl)-1-[(1-methyl-1H-imidazol-4-yl)sulfonyl]pyrrolidin-3-amine] | ≤ 1000 |
| Cn1cnc(S(=O)(=O)N2C[C@@H](Nc3ccncc3)[C@H](c3ccc(F)cc3)C2)c1 (relative stereo) [Example 177, N-{trans-4-(4-fluorophenyl)-1-[(1-methyl-1H-imidazol-4-yl)sulfonyl]pyrrolidin-3-yl}pyridin-4-amine] | ≤ 10000 |
| Cn1cnc(S(=O)(=O)N2C[C@@H](Nc3ccccn3)[C@H](c3ccc(F)cc3)C2)c1 (relative stereo) [Example 178, N-{trans-4-(4-fluorophenyl)-1-[(1-methyl-1H-imidazol-4-yl)sulfonyl]pyrrolidin-3-yl}pyridin-2-amine] | ≤ 1000 |
| Cn1cnc(S(=O)(=O)N2C[C@@H](Nc3cccnc3)[C@H](c3ccc(F)cc3)C2)c1 (relative stereo) [Example 179, N-{trans-4-(4-fluorophenyl)-1-[(1-methyl-1H-imidazol-4-yl)sulfonyl]pyrrolidin-3-yl}pyridin-3-amine] | ≤ 10000 |
| Cn1cnc(S(=O)(=O)N2C[C@@H](Nc3cccc(C(F)(F)F)n3)[C@H](c3ccc(F)cc3)C2)c1 (relative stereo) [Example 180, N-{trans-4-(4-fluorophenyl)-1-[(1-methyl-1H-imidazol-4-yl)sulfonyl]pyrrolidin-3-yl}-6-(trifluoromethyl)pyridin-2-amine] | ≤ 1000 |
| Cn1cnc(S(=O)(=O)N2C[C@H](c3ccccc3)[C@H](Nc3ccccc3)C2)c1 (relative stereo) [Example 184, (cis)-1-[(1-methyl-1H-imidazol-4-yl)sulfonyl]-N,4-diphenylpyrrolidin-3-amine] | ≤ 10000 |
| Cn1cnc(S(=O)(=O)N2C[C@@H](Nc3ccccc3)[C@H](c3cccc(F)c3)C2)c1 (relative stereo) [Example 185, trans-4-(3-fluorophenyl)-1-[(1-methyl-1H-imidazol-4-yl)sulfonyl]-N-phenylpyrrolidin-3-amine] | ≤ 10000 |
| Cn1cnc(S(=O)(=O)N2C[C@@H](Nc3ccc(F)cc3)[C@H](c3cccc(F)c3)C2)c1 (relative stereo) [Example 187, trans-4-(3-fluorophenyl)-N-(4-fluorophenyl)-1-[(1-methyl-1H-imidazol-4-yl)sulfonyl]pyrrolidin-3-amine] | ≤ 10000 |
| Cn1cnc(S(=O)(=O)N2C[C@@H](Nc3ccccc3)[C@H](c3ccccc3F)C2)c1 (relative stereo) [Example 198, trans-4-(2-fluorophenyl)-1-[(1-methyl-1H-imidazol-4-yl)sulfonyl]-N-phenylpyrrolidin-3-amine] | ≤ 1000 |
| Cn1cnc(S(=O)(=O)N2C[C@@H](Nc3cccc(F)c3)[C@H](c3ccccc3F)C2)c1 (relative stereo) [Example 199, trans-4-(2-fluorophenyl)-N-(3-fluorophenyl)-1-[(1-methyl-1H-imidazol-4-yl)sulfonyl]pyrrolidin-3-amine] | ≤ 1000 |
| Cn1cnc(S(=O)(=O)N2C[C@@H](Nc3ccc(F)cc3)[C@H](c3ccccc3F)C2)c1 (relative stereo) [Example 200, trans-4-(2-fluorophenyl)-N-(4-fluorophenyl)-1-[(1-methyl-1H-imidazol-4-yl)sulfonyl]pyrrolidin-3-amine] | ≤ 1000 |
| Cn1cnc(S(=O)(=O)N2C[C@@H](Nc3ccc(Cl)cc3)[C@H](c3ccccc3F)C2)c1 (relative stereo) [Example 202, trans-N-(4-chlorophenyl)-4-(2-fluorophenyl)-1-[(1-methyl-1H-imidazol-4-yl)sulfonyl]pyrrolidin-3-amine] | ≤ 1000 |

Further lines, results first:

| Ki [nM] | Compound |
| --- | --- |
| ≤ 1000 | Cn1cnc(S(=O)(=O)N2C[C@@H](Nc3cccc(F)c3)[C@H](c3cccc(F)c3)C2)c1 (relative stereo) [Example 186, trans-N,4-bis(3-fluorophenyl)-1-[(1-methyl-1H-imidazol-4-yl)sulfonyl]pyrrolidin-3-amine] |
| ≤ 100 | Cn1cnc(S(=O)(=O)N2C[C@@H](Nc3cccc(Cl)c3)[C@H](c3cccc(F)c3)C2)c1 (relative stereo) [Example 188, trans-N-(3-chlorophenyl)-4-(3-fluorophenyl)-1-[(1-methyl-1H-imidazol-4-yl)sulfonyl]pyrrolidin-3-amine] |
| ≤ 100 | Cn1cnc(S(=O)(=O)N2C[C@@H](Nc3cccc(C(F)(F)F)c3)[C@H](c3cccc(F)c3)C2)c1 (relative stereo) [Example 189, trans-4-(3-fluorophenyl)-1-[(1-methyl-1H-imidazol-4-yl)sulfonyl]-N-[3-(trifluoromethyl)phenyl]pyrrolidin-3-amine] |
| ≤ 1000 | Cn1cnc(S(=O)(=O)N2C[C@@H](Nc3ccc(C(F)(F)F)cc3)[C@H](c3cccc(F)c3)C2)c1 (relative stereo) [Example 190, trans-4-(3-fluorophenyl)-1-[(1-methyl-1H-imidazol-4-yl)sulfonyl] -N-[4-(trifluoromethyl)phenyl]pyrrolidin-3-amine] |
| ≤ 10000 | Cn1cnc(S(=O)(=O)N2C[C@@H](Nc3ccncc3)[C@H](c3cccc(F)c3)C2)c1 (relative stereo) [Example 191, N-{trans-4-(3-fluorophenyl)-1-[(1-methyl-1H-imidazol-4-yl)sulfonyl]pyrrolidin-3-yl}pyridin-4-amine] |
| ≤ 1000 | Cn1cnc(S(=O)(=O)N2C[C@@H](Nc3ccc(Cl)c(Cl)c3)[C@H](c3cccc(F)c3)C2)c1 (relative stereo) [Example 192, trans-N-(3,4-dichlorophenyl)-4-(3-fluorophenyl)-1-[(1-methyl-1H-imidazol-4-yl)sulfonyl]pyrrolidin-3-amine] |
| ≤ 10000 | Cn1cnc(S(=O)(=O)N2C[C@@H](Nc3ccc(Cl)c(F)c3)[C@H](c3cccc(F)c3)C2)c1 (relative stereo) [Example 193, trans-N-(4-chloro-3-fluorophenyl)-4-(3-fluorophenyl)-1-[(1-methyl-1H-imidazol-4-yl)sulfonyl]pyrrolidin-3-amine] |
| ≤ 100 | Cn1cnc(S(=O)(=O)N2C[C@@H](Nc3ccc(F)c(Cl)c3)[C@H](c3cccc(F)c3)C2)c1 (relative stereo) [Example 194, trans-N-(3-chloro-4-fluorophenyl)-4-(3-fluorophenyl)-1-[(1-methyl-1H-imidazol-4-yl)sulfonyl]pyrrolidin-3-amine] |
| ≤ 10000 | Cn1cnc(S(=O)(=O)N2C[C@@H](Nc3cccc(C(F)(F)F)n3)[C@H](c3cccc(F)c3)C2)c1 (relative stereo) [Example 195, N-{trans-4-(3-fluorophenyl)-1-[(1-methyl-1H-imidazol-4-yl)sulfonyl]pyrrolidin-3-yl} -6-(trifluoromethyl)pyridin-2-amine] |
| ≤ 10000 | Cn1cnc(S(=O)(=O)N2C[C@@H](Nc3cncc(C(F)(F)F)c3)[C@H](c3cccc(F)c3)C2)c1 (relative stereo) [Example 196, N-{trans-4-(3-fluorophenyl)-1-[(1-methyl-1H-imidazol-4-yl)sulfonyl]pyrrolidin-3-yl}-5-(trifluoromethyl)pyridin-3-amine] |
| ≤ 1000 | Cn1cnc(S(=O)(=O)N2C[C@@H](Nc3ccc(F)c(F)c3)[C@H](c3cccc(F)c3)C2)c1 (relative stereo) [Example 197, trans-N-(3,4-difluorophenyl)-4-(3-fluorophenyl)-1-[(1-methyl-1H-imidazol-4-yl)sulfonyl]pyrrolidin-3-amine] |
